Consider 31 compounds from patent US8476306B2, “Urokinase inhibitors, production and use thereof” (The Medicines Company (Leipzig) GmbH, priority 2002, dated 2013).

Molecules are shown by their SMILES. Counter-ions that a name gives are not always drawn.

One series addresses sc urokinase (Homo sapiens (Human), UniProt P00749). The experiment in a line: Inhibiting urokinase with 4-amidinobenzylamide compounds (chromogenic substrate Bzl-βAla-Gly-Arg-pNA, Dixon Ki). Format: biochemical. Particulars: 25° C., pH 8.0, means of at least three determinations. An excerpt:
Determining the Inhibitory Effect
The Ki values are the means of at least three determinations.

For another series, the target named is uPA (Homo sapiens (Human), UniProt P00749). The experiment in a line: Inhibition constants for uPA, determined as in Stürzebecher et al. 1997. In kind it is biochemical.
For a further series, the target named is plasmin (Homo sapiens (Human), UniProt P00747). The experiment in a line: Inhibition constants for plasmin, determined in analogy to uPA. Format: biochemical.
Chain of plasmin (P00747 581-810, species assumed): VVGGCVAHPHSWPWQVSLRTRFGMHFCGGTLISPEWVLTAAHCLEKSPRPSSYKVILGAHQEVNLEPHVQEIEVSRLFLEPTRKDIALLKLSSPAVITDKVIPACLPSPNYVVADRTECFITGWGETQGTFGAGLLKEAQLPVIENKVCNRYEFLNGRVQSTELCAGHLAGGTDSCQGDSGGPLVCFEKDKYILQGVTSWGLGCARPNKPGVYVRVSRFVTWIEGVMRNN
Chain of plasmin (P00747 97-580 partner, species assumed): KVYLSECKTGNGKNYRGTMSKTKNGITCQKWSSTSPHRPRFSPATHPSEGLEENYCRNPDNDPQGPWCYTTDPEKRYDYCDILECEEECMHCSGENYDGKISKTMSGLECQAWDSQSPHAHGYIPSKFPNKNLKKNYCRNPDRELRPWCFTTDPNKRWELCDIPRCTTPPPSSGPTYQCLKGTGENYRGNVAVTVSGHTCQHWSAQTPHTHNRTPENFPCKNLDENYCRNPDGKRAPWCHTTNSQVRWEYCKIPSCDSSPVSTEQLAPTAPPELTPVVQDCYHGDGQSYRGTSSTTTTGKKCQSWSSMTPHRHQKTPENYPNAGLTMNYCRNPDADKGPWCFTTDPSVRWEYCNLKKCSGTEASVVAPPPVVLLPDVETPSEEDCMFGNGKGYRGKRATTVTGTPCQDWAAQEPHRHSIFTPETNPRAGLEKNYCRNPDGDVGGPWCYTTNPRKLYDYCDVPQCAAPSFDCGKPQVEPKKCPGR
The next series has as its target thrombin (Homo sapiens (Human), UniProt P00734). The series can be described thus: Inhibition constants for thrombin, determined in analogy to uPA. In kind it is biochemical.
Series [1] is described as follows: Elimination (β phase) half-life in rats after intravenous administration, plasma levels by HPLC. Particulars: for half-life: female, Wistar, rat, plasma, iv, 1 mg/kg; for elimination (β phase) half-life t1/2: rats, intravenous administration 1 mg/kg.
Protocol: Female Wistar rats (240-300 g body weight) were anesthetized (ethylurethane, 2.5 g/ml in NaCl, 0.5 ml/100 g rat), after which the A. carotis located in the neck was exposed. A catheter inserted into this vessel enabled blood to be removed at specified times. The volume administered was 0.5 ml, while 0.9% NaCl was used as the administration solution. […] The resultant loss of blood was offset, immediately after removal of the sample, with 500 μl of 0.9% NaCl solution. Citrate plasma was obtained by centrifuging the blood at 1200×g for 10 min.
For the next series, the target named is trypsin. The experiment in a line: Inhibition constants for trypsin, determined in analogy to uPA. Format: biochemical.
Chain of trypsin (P00760 24-246 limits assumed): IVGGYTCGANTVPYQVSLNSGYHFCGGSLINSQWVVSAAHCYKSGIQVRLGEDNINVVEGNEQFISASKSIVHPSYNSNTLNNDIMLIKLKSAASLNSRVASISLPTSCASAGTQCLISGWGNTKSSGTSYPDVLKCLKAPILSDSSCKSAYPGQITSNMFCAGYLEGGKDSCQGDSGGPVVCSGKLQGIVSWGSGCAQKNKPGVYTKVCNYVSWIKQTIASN
For series [2] the following is noted: after s.c. administration; following acylation of the D-Ser hydroxyl; cited from earlier work.

With `N=C(N)c1ccc(CNC(=O)[C@H](CC(=O)O)NC(=O)[C@@H](CO)NS(=O)(=O)Cc2ccccc2)cc1`, the Ki at sc urokinase was 0.86 µM.

Consider `N=C(N)c1ccc(CNC(=O)[C@H](CCC(=O)O)NC(=O)[C@@H](CO)NS(=O)(=O)Cc2ccccc2)cc1` [Benzylsulfonyl-D-Ser-Glu-4-amidinobenzylamide×TFA], for which the Ki on sc urokinase is 0.16 µM. This Ki is about 5.4-fold lower than that of the compound before.

`N=C(N)c1ccc(CNC(=O)[C@H](CCCCNC(=O)COCC(=O)NCCOCCOCCOCCOCCOCCOCCOCCN)NC(=O)[C@@H](CO)NS(=O)(=O)Cc2ccccc2)cc1` [Example 10, Bzls-dSer-Lys(CO—CH2—O—CH2—CO—NH—CH2—CH2-Hexaethylene-glycol-CH2—CH2—NH2)-4-amidinobenzylamide×2 TFA]: the values for the Ki on uPA, at plasmin and on thrombin were 0.042 µM, 0.53 µM and 1.4 µM, respectively. The compound further had a half-life in series [1] of 52.8 min.

Consider `N=C(N)c1ccc(CNC(=O)CNC(=O)[C@@H](CN)NS(=O)(=O)Cc2ccccc2)cc1` [Example 11, Benzylsulfonyl-dDap-Gly-4-Amba], for which the Ki at uPA amounted to 0.18 µM; at plasmin, 9.6 µM; on trypsin, 0.18 µM; on thrombin it was 10 µM.

As for `N=C(N)c1ccc(CNC(=O)[C@H](Cc2cnc[nH]2)NC(=O)[C@@H](CO)NS(=O)(=O)Cc2ccccc2)cc1` [Example 12, Benzylsulfonyl-dSer-His-4-Amba], the Ki on uPA amounted to 0.11 µM; on plasmin it was 0.4 µM; at trypsin, 0.025 µM; at thrombin, 8.5 µM.

`N=C(N)c1ccc(CNC(=O)CNC(=O)[C@@H](CO)NS(=O)(=O)Cc2ccc(CC(=O)O)cc2)cc1` [Example 13, 4(HOOC—CH2)Benzylsulfonyl-dSer-Gly-4-Amba]: the Ki is 0.13 µM on uPA, 27 µM on plasmin, 0.3 µM at trypsin and 60 µM on thrombin.

Regarding `N=C(N)c1ccc(CNC(=O)CNC(=O)[C@@H](CO)NS(=O)(=O)Cc2ccccc2C(=O)O)cc1` [R=2-COOH, X=CH, R1=H], the Ki was 0.37 µM on uPA, 220 µM on plasmin, 2.4 µM at trypsin and 56 µM at thrombin.

In the case of `COC(=O)c1ccccc1CS(=O)(=O)N[C@H](CO)C(=O)NCC(=O)NCc1ccc(C(=N)N)cc1` [R=2-COOMe, X=CH, R1=H], the inhibitory constant (Ki) on uPA came to 0.083 µM; on plasmin, 38 µM; on trypsin it was 0.4 µM; at thrombin, 4 µM.

With `N=C(N)c1ccc(CNC(=O)CNC(=O)[C@@H](CO)NS(=O)(=O)Cc2ccc(Cl)c(Cl)c2)cc1` [R=3,4-di-Cl, X=CH, R1=H], the inhibitory constant (Ki) was 0.11 µM on uPA, 32 µM at plasmin, 0.6 µM at trypsin and 8.3 µM on thrombin.

As for `N=C(N)c1ccc(CNC(=O)[C@H](CO)NC(=O)[C@@H](CO)NS(=O)(=O)Cc2cccc(C(=O)O)c2)cc1` [R=3-COOH, X=CH, R1=CH2—OH], the Ki at uPA was 0.075 µM; on plasmin it was 4.2 µM; at trypsin, 0.058 µM; on thrombin, 200 µM. Moreover, in series [1], the “elimination (β phase) half-life t1/2” value came to 25.8 min.

With `C[C@H](NC(=O)[C@@H](CO)NS(=O)(=O)Cc1cccc(C(=O)O)c1)C(=O)NCc1ccc(C(=N)N)cc1` [R=3-COOH, X=CH, R1=CH3], the Ki at uPA is 0.03 µM; on plasmin, 4.7 µM; at trypsin, 0.021 µM; at thrombin it was 8.3 µM. Also, in series [1], the “elimination (β phase) half-life t1/2” value turned out to be 25.2 min.

On to `N=C(N)c1ccc(CNC(=O)CNC(=O)[C@@H](CO)NS(=O)(=O)Cc2cccc(C(=O)O)c2)cc1.O=C(O)C(F)(F)F` [R=3-COOH, X=CH, R1=H, 3-(HOOC)Benzylsulfonyl-dSer-Gly-4-amidinobenzylamide×TFA], for which the Ki at uPA stood at 0.16 µM; at plasmin, 59 µM; on thrombin, 150 µM. The compound also showed a half-life in series [1] of 78 min.

On to `COC(=O)c1cccc(CS(=O)(=O)N[C@H](CO)C(=O)NCC(=O)NCc2ccc(C(=N)N)cc2)c1` [R=3-COOMe, X=CH, R1=H], for which the Ki on uPA was 0.12 µM; at plasmin, 28 µM; at trypsin, 0.29 µM; at thrombin, 42 µM.

For the compound `N=C(N)c1ccc(CNC(=O)CNC(=O)[C@@H](CO)NS(=O)(=O)Cc2ccc(CN)cc2)cc1` [R=4-(NH2—CH2), X=CH, R1=H, 4-(Aminomethyl)benzylsulfonyl-dSer-Gly-4-amidinobenzylamide×2 TFA], the inhibition constant Ki at plasmin is 7.4 µM; on thrombin, 8 µM.

As for `N#Cc1ccc(CS(=O)(=O)N[C@H](CO)C(=O)NCC(=O)NCc2ccc(C(=N)N)cc2)cc1` [R=4-CN, X=CH, R1=CH], the Ki at uPA worked out at 0.089 µM; on plasmin it was 27 µM; on trypsin, 0.34 µM; on thrombin, 8.5 µM.

`N=C(N)c1ccc(CNC(=O)[C@H](CO)NC(=O)[C@@H](CO)NS(=O)(=O)Cc2ccc(C(=O)O)cc2)cc1` [R=4-COOH, X=CH, R1=CH2—OH]: the Ki on uPA stood at 0.23 µM; on plasmin, 6.2 µM; at trypsin it was 0.1 µM; on thrombin it was 120 µM. The “elimination (β phase) half-life t1/2” value in series [1] worked out at 25.8 min.

With `C[C@H](NC(=O)[C@@H](CO)NS(=O)(=O)Cc1ccc(C(=O)O)cc1)C(=O)NCc1ccc(C(=N)N)cc1` [R=4-COOH, X=CH, R1=CH3], the Ki on uPA came out at 0.038 µM; at plasmin, 3 µM; at trypsin, 0.013 µM; on thrombin, 2.3 µM. In addition, the “elimination (β phase) half-life t1/2” value in series [1] amounted to 39.6 min.

For the compound `N=C(N)c1ccc(CNC(=O)CNC(=O)[C@@H](CO)NS(=O)(=O)Cc2ccc(C(=O)O)cc2)cc1` [R=4-COOH, X=CH, R1=H], the inhibitory constant (Ki) at uPA was 0.15 µM; on plasmin it was 35 µM; on trypsin, 0.48 µM; on thrombin, 170 µM. Also, the “elimination (β phase) half-life t1/2” value in series [1] turned out to be 120 min.

Take `COC(=O)c1ccc(CS(=O)(=O)N[C@H](CO)C(=O)N[C@@H](CO)C(=O)NCc2ccc(C(=N)N)cc2)cc1` [R=4-COOMe, X=CH, R1=CH2—OH]: the inhibitory constant (Ki) came out at 0.23 µM at uPA, 0.96 µM at plasmin, 0.02 µM at trypsin and 4.2 µM on thrombin.

As for `COC(=O)c1ccc(CS(=O)(=O)N[C@H](CO)C(=O)NCC(=O)NCc2ccc(C(=N)N)cc2)cc1` [R=4-COOMe, X=CH, R1=H], the Ki at uPA came out at 0.62 µM; on plasmin, 17 µM; on trypsin, 0.18 µM; at thrombin, 9.4 µM.

For the compound `N=C(N)c1ccc(CNC(=O)CNC(=O)[C@@H](CO)NS(=O)(=O)Cc2ccc(Cl)cc2)cc1` [R=4-Cl, X=CH, R1=H], the Ki on uPA stood at 0.032 µM; at plasmin, 32 µM; on trypsin it was 0.35 µM; at thrombin it was 7.9 µM.

Consider `N=C(N)c1ccc(CNC(=O)CNC(=O)[C@@H](CO)NS(=O)(=O)Cc2ccc(F)cc2)cc1` [R=4-F, X=CH, R1=H], for which the Ki at uPA amounted to 0.031 µM; at plasmin, 20 µM; at trypsin it was 0.11 µM; on thrombin, 7.9 µM.

With `Cc1ccc(CS(=O)(=O)N[C@H](CO)C(=O)NCC(=O)NCc2ccc(C(=N)N)cc2)cc1` [R=4-Me, X=CH, R1=H], the Ki at uPA came to 0.058 µM; on plasmin, 18 µM; at trypsin, 0.21 µM; at thrombin, 8 µM.

`N=C(N)c1ccc(CNC(=O)[C@H](CN)NC(=O)[C@@H](CO)NS(=O)(=O)Cc2ccccc2)cc1` [R=H, X=CH, R1=CH2—NH2]: the Ki amounted to 0.036 µM at uPA, 0.81 µM on plasmin, 0.021 µM at trypsin and 0.78 µM on thrombin. For the same compound, the “elimination (β phase) half-life t1/2” value in series [1] was found to be 24 min.

For `N=C(N)c1ccc(CNC(=O)[C@H](COCc2ccccc2)NC(=O)[C@@H](CO)NS(=O)(=O)Cc2ccccc2)cc1` [R=H, X=CH, R1=CH2—O(Bzl)], the Ki on uPA is 0.028 µM; on plasmin, 0.27 µM; at trypsin, 0.0068 µM; on thrombin it was 0.48 µM.

For the compound `CC(OCc1ccccc1)[C@H](NC(=O)[C@@H](CO)NS(=O)(=O)Cc1ccccc1)C(=O)NCc1ccc(C(=N)N)cc1` (stereo partly drawn) [R=H, X=CH, R1=CH(OBzl)CH3], the Ki on uPA amounted to 0.061 µM; on plasmin, 1.1 µM; on trypsin, 0.011 µM; at thrombin, 0.1 µM.

`CC(O)[C@H](NC(=O)[C@@H](CO)NS(=O)(=O)Cc1ccccc1)C(=O)NCc1ccc(C(=N)N)cc1` (stereo partly drawn) [R=H, X=CH, R1=CH(OH)CH3]: the Ki at uPA was 0.11 µM; at plasmin it was 1.4 µM; on trypsin, 0.03 µM; on thrombin, 4 µM.

As to `N=C(N)c1ccc(CNC(=O)CNC(=O)[C@@H](CO)NS(=O)(=O)Cc2ccccc2)cc1` [R=H, X=CH, R1=H, Benzylsulfonyl-D-Ser-Gly-4-amidinobenzylamide], the figures for the Ki on plasmin, at trypsin and on thrombin were 11 µM, 0.15 µM and 13 µM, respectively. Further, the “elimination (β phase) half-life t1/2” value in series [1] was found to be 17.4 min.

For the compound `N=C(N)c1ccc(CNC(=O)[C@H](CCCN=C(N)N)NC(=O)[C@@H](CO)NS(=O)(=O)Cc2ccccc2)cc1` [X=Arg, Benzylsulfonyl-dSer-Arg-4-amidinobenzylamide×2 TFA], the Ki on plasmin was found to be 0.2 µM; on thrombin, 4.7 µM. In addition, the half-life in series [1] is 36 min.

Consider `N=C(N)c1ccc(CNC(=O)[C@H](CCCCN)NC(=O)[C@@H](CO)NS(=O)(=O)Cc2ccccc2)cc1` [X=Lys, Benzylsulfonyl-dSer-Lys-4-amidinobenzylamide×2 TFA], for which the Ki at plasmin is 0.36 µM; on thrombin, 4.3 µM. The half-life in series [1] was 42 min.

On to `CC(C)COC(=O)N[C@H](CO)C(=O)N[C@@H](C)C(=O)N[C@H](C=O)CCCNC(=N)N` [iBuOCO-D-Ser-Ala-Arg-H], for which, in series [2], the relative bioavailability was 87%.
